Data: patent US20230329994A1, “Surfactant Containing Formulation of Pseudo-Ceramides” (Symrise AG, priority 2020, published 2023)

Tests used:
[1] = Solubility: visual appearance of shampoo formulations; format: physicochemical; conditions: 0.1 in shampoo, surfactant approx. 14%; after preparation, after 3 days at 5° C. and 3 days at room temperature
Description: The solubility of the pseudoceramide CeramideBio in shampoo is evaluated in comparison to Ceramide 2 and Ceramide 3.
Shampoo Formulations: • Surfactant content: Approx. 14% 01
The shampoo formulations were prepared as follows: Phase A components were blended by gentle stirring; the process was stopped, when foaming starts.
The ceramides/pseudoceramide were predispersed in polyglyceryl-4-caprate and heated up to 90° C. The ceramides/pseudoceramide were melted and finely dispersed. Ucare Polymer JR-400 and water were added and the mixture was heated up to 90° C. again and stirred for 10 minutes.
Phases B, C and D were added to phase A one after the other by stirring. After that, the mixture was stirred slowly with a vane stirrer until the solution was homogeneous. At last Phase E was added by stirring with a vane stirrer. The pH value was adjusted to about 5.4 to 5.8.
The visual appearance of the shampoo formulations was evaluated after preparation, after 3 days storage at 5° C. and 3 day at room temperature.
The visual appearance of the shampoo formulations is depicted in FIG. 1. From left to the right: Sample CeramideBio (01_B), Ceramide 2 (02_B), Ceramide 3 (03_B).

[2] = Swelling test / hydrophobicity of hair fibers; conditions: for diameter variation of the hair after 180 s: 1× bleached tresses
Description: The swelling of the hair was measured with a conditioning formulation according to the present invention containing pseudoceramide CeramideBio (leave-on, 0.5 and 0.05%), a conditioning formulation containing Ceramide 2 (leave-on, 0.5% and 0.05%) and a Placebo (leave-on).
Principle: Through diameter measurements it is possible to determine the level of swelling of a hair fiber over time when in contact with water. The swelling test evaluates the action of materials in forming a hydrophobic film on hair surface in order to prevent humidity from penetrating the hair, which in turn provokes the hair diameter variation. The laser measures the variation in the fiber diameter as it absorbs water over a pre-determined time. According to the fiber condition or the film covering its surface, the level of swelling may change. The more damaged the hair, the more hydrophilic it is, since most of the hair damages take the lipids, ceramides and other hydrophobic substances away from the hair, and, consequently, more swelling is noticed. Parameter measured: variation in hair diameter (%).
Swelling Test: • 3 Caucasian hair tresses (2.5 g, 25 cm, 1× bleached) were cleaned with a sodium laureth sulfate solution (SLES) (10%) for 1 minute; • Test samples (see above) were applied to each tress (0.25 ml of sample; massaging for 1 minute); • Tresses were left for drying at controlled environment (22±2° C.; 50±5% RH) overnight; • 45 fibers from each treatment were collected randomly and fixed in plastic tabs one by one; • Swelling test was performed during 180 s; • Variation on fiber's diameter was calculated; • Comparisons among treatments were performed using one-way variance analysis (ANOVA), followed by Tukey's honestly significant difference (HSD) test, at a 95% confidence interval.

[3] = Hair shine/luster evaluation (SAMBA system)
Description: The hair luster was measured with a shampoo formulation according to the present invention containing pseudoceramide CeramideBio (shampoo, 1.0%), a shampoo formulation containing Ceramide 2 (shampoo, 1%) and a Placebo (shampoo).
Principle: Hair luster test analyzes the light reflection from the hair surface and other interactions of the incident light with the hair. The measurement is made by using SAMBA system. The results are expressed by luster: parameter calculated from values of shine, chroma and diffused light to express the observer perception of the gloss effect. The higher is the value, the best impression of the observer regarding gloss effect of the hair. […]

Row | recrystallization in shampoo formulation (visual appearance) [1] | SMILES | diameter variation of the hair after 180 s compared to conditioning formulation with Ceramide 2 ([2]; leave-on conditioning formulation) | diameter variation of the hair after 180 s ([2]; leave-on conditioning formulation, higher concentration (0.5%)) [%] | diameter variation of the hair after 180 s ([2]; leave-on conditioning formulation, lower concentration (0.05%)) [%] | hair fiber swelling / hydrophobicity versus non-treated hair, placebo and leave-on with 0.05% Ceramide 2 ([2]; leave-on formulation containing 0.05%) | effect on hair luster ([3]; shampoo formulation containing 1.0%) | luster of the hair compared to shampoo formulation with Ceramide 2 ([3]; shampoo, 1.0%, applied 5 times, 3× bleached tresses)
1 | showed recrystallization | CCCCCCCCCCCCCCCCCC(=O)N[C@@H](CO)[C@H](O)CCCCCCCCCCCCCCC [Ceramide 2] | – | – | – | – | – | –
2 | showed recrystallization | CCCCCCCCCCCCCCCCCCCCCCCC(=O)N[C@@H](CO)[C@H](O)C(O)CCCCCCCCCCCCCC (stereo partly drawn) [Ceramide 3] | – | – | – | – | – | –
3 | without recrystallization | CCCCCCCCCCCCCCCCOC(=O)[C@@H]1C[C@@H](O)CN1C(=O)CCCCCCCCCCCCCCC [CeramideBio, Cetylhydroxyproline palmitamide] | smaller | 15.90 | 14.44 | statistically decreasing its swelling | able to increase hair luster | higher
